Tests used:
Type in all cases: in vivo
Matricaria inodora [1] = experiment: Pre-emergence herbicidal action; details: 1280 g/ha, scored visually after about 3 weeks vs untreated controls
How it was run: (§1)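 Percent activity was assessed by eye roughly 3 weeks post-treatment, with 0% equal to untreated plants and 100% equal to dead plants. Before emergence, seeded pots received a soil-surface spray at 1280 g/ha (600 l/ha water, 0.5% additive).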

Avena fatua [2] = experiment: Pre-emergence herbicidal action; details: 1280 g/ha, scored visually after about 3 weeks vs untreated controls
How it was run: as §1

Viola tricolor [3] = experiment: Pre-emergence herbicidal action; details: 1280 g/ha, scored visually after about 3 weeks vs untreated controls
How it was run: as §1

Abutilon theophrasti [4] = experiment: Pre-emergence herbicidal action; details: 1280 g/ha, scored visually after about 3 weeks vs untreated controls
How it was run: as §1

Hordeum murinum [5] = experiment: Pre-emergence herbicidal action; details: 1280 g/ha, scored visually after about 3 weeks vs untreated controls
How it was run: as §1

Stellaria media [6] = experiment: Pre-emergence herbicidal action; details: 1280 g/ha, scored visually after about 3 weeks vs untreated controls
How it was run: as §1

Polygonum convolvulus [7] = experiment: Pre-emergence herbicidal action; details: 1280 g/ha, scored visually after about 3 weeks vs untreated controls
How it was run: as §1

Echinochloa crus-galli [8] = experiment: Pre-emergence herbicidal action; details: 1280 g/ha, scored visually after about 3 weeks vs untreated controls
How it was run: as §1

Pharbitis purpurea [9] = experiment: Pre-emergence herbicidal action; details: 1280 g/ha, scored visually after about 3 weeks vs untreated controls
How it was run: as §1

Alopecurus myosuroides [10] = experiment: Pre-emergence herbicidal action; details: 1280 g/ha, scored visually after about 3 weeks vs untreated controls
How it was run: as §1

Veronica persica [11] = experiment: Pre-emergence herbicidal action; details: 1280 g/ha, scored visually after about 3 weeks vs untreated controls
How it was run: as §1

Amaranthus retroflexus [12] = experiment: Pre-emergence herbicidal action; details: 1280 g/ha, scored visually after about 3 weeks vs untreated controls
How it was run: as §1

Lolium rigidum [13] = experiment: Pre-emergence herbicidal action; details: 1280 g/ha, scored visually after about 3 weeks vs untreated controls
How it was run: as §1

Setaria viridis [14] = experiment: Pre-emergence herbicidal action; details: 1280 g/ha, scored visually after about 3 weeks vs untreated controls
How it was run: as §1

Avena fatua [15] = experiment: Post-emergence herbicidal action; details: 1280 g/ha, rated visually after about 3 weeks vs untreated controls
How it was run: (§2)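 Greenhouse post-emergence spray at one-leaf stage, 1280 g/ha, 600 l/ha water with 0.5% additive; efficacy rated visually after roughly 3 weeks, 0% meaning like controls and 100% meaning dead plants.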

Viola tricolor [16] = experiment: Post-emergence herbicidal action; details: 1280 g/ha, rated visually after about 3 weeks vs untreated controls
How it was run: as §2

Abutilon theophrasti [17] = experiment: Post-emergence herbicidal action; details: 1280 g/ha, rated visually after about 3 weeks vs untreated controls
How it was run: as §2

Hordeum murinum [18] = experiment: Post-emergence herbicidal action; details: 1280 g/ha, rated visually after about 3 weeks vs untreated controls
How it was run: as §2

Stellaria media [19] = experiment: Post-emergence herbicidal action; details: 1280 g/ha, rated visually after about 3 weeks vs untreated controls
How it was run: as §2

Polygonum convolvulus [20] = experiment: Post-emergence herbicidal action; details: 1280 g/ha, rated visually after about 3 weeks vs untreated controls
How it was run: as §2

Echinochloa crus-galli [21] = experiment: Post-emergence herbicidal action; details: 1280 g/ha, rated visually after about 3 weeks vs untreated controls
How it was run: as §2

Pharbitis purpurea [22] = experiment: Post-emergence herbicidal action; details: 1280 g/ha, rated visually after about 3 weeks vs untreated controls
How it was run: as §2

Alopecurus myosuroides [23] = experiment: Post-emergence herbicidal action; details: 1280 g/ha, rated visually after about 3 weeks vs untreated controls
How it was run: as §2

Amaranthus retroflexus [24] = experiment: Post-emergence herbicidal action; details: 1280 g/ha, rated visually after about 3 weeks vs untreated controls
How it was run: as §2

Lolium rigidum [25] = experiment: Post-emergence herbicidal action; details: 1280 g/ha, rated visually after about 3 weeks vs untreated controls
How it was run: as §2

Setaria viridis [26] = experiment: Post-emergence herbicidal action; details: 1280 g/ha, rated visually after about 3 weeks vs untreated controls
How it was run: as §2

Matricaria inodora [27] = experiment: Post-emergence herbicidal action; details: 1280 g/ha, rated visually after about 3 weeks vs untreated controls
How it was run: as §2

Veronica persica [28] = experiment: Post-emergence herbicidal action; details: 1280 g/ha, rated visually after about 3 weeks vs untreated controls
How it was run: as §2

Compound	herbicidal activity on Matricaria inodora (Matricaria inodora [1]) [%]	herbicidal activity on Avena fatua (Avena fatua [2]) [%]	herbicidal activity on Viola tricolor (Viola tricolor [3]) [%]	herbicidal activity on Abutilon theophrasti (Abutilon theophrasti [4]) [%]	herbicidal activity on Hordeum murinum (Hordeum murinum [5]) [%]	herbicidal activity on Stellaria media (Stellaria media [6]) [%]	herbicidal activity on Polygonum convolvulus (Polygonum convolvulus [7]) [%]	herbicidal activity on Echinochloa crus-galli (Echinochloa crus-galli [8]) [%]	herbicidal activity on Alopecurus myosuroides (Alopecurus myosuroides [10]) [%]	herbicidal activity on Amaranthus retroflexus (Amaranthus retroflexus [12]) [%]	herbicidal activity on Setaria viridis (Setaria viridis [14]) [%]	herbicidal activity on Viola tricolor (Viola tricolor [16]) [%]	herbicidal activity on Abutilon theophrasti (Abutilon theophrasti [17]) [%]	herbicidal activity on Stellaria media (Stellaria media [19]) [%]	herbicidal activity on Polygonum convolvulus (Polygonum convolvulus [20]) [%]	herbicidal activity on Echinochloa crus-galli (Echinochloa crus-galli [21]) [%]	herbicidal activity on Pharbitis purpurea (Pharbitis purpurea [22]) [%]	herbicidal activity on Alopecurus myosuroides (Alopecurus myosuroides [23]) [%]	herbicidal activity on Amaranthus retroflexus (Amaranthus retroflexus [24]) [%]	herbicidal activity on Setaria viridis (Setaria viridis [26]) [%]	other results
Cc1c(Sc2ccc(F)c(F)c2)c(Oc2ncc(F)cn2)nn1C [Example I-093]	100	100	100	100	100	100	100	100	100	100	100	100	90	100	100	100	90	100	100	100	herbicidal activity on Pharbitis purpurea (Pharbitis purpurea [9]): 80%; herbicidal activity on Veronica persica (Veronica persica [11]): 100%; herbicidal activity on Lolium rigidum (Lolium rigidum [13]): 100%; herbicidal activity on Avena fatua (Avena fatua [15]): 100%; herbicidal activity on Hordeum murinum (Hordeum murinum [18]): 90%; herbicidal activity on Lolium rigidum (Lolium rigidum [25]): 100%
COc1cnc(Oc2nn(C)c(C)c2Sc2ccccc2)nc1 [Example I-140]	100	100	100	100	100	100	100	100	100	100	100	100	100	90	100	100	100	100	100	100	herbicidal activity on Lolium rigidum (Lolium rigidum [13]): 100%; herbicidal activity on Matricaria inodora (Matricaria inodora [27]): 100%; herbicidal activity on Hordeum murinum (Hordeum murinum [18]): 80%; herbicidal activity on Veronica persica (Veronica persica [28]): 100%; herbicidal activity on Lolium rigidum (Lolium rigidum [25]): 80%
Cc1c(Sc2ccccc2)c(Oc2ncccn2)nn1C [Example I-126]	100	100	100	100	100	100	100	100	100	100	100	100	100	100	100	100	100	100	100	100	herbicidal activity on Pharbitis purpurea (Pharbitis purpurea [9]): 90%; herbicidal activity on Lolium rigidum (Lolium rigidum [13]): 100%; herbicidal activity on Matricaria inodora (Matricaria inodora [27]): 80%; herbicidal activity on Hordeum murinum (Hordeum murinum [18]): 80%
Cc1c(Sc2ccc(F)cc2Cl)c(Oc2ncc(F)cn2)nn1C [Example I-065]	90	–	100	80	–	100	100	–	–	100	100	100	80	90	100	–	100	–	100	–	herbicidal activity on Matricaria inodora (Matricaria inodora [27]): 80%
Cc1c(Sc2ccccc2)c(Oc2ncc(F)cn2)nn1C [Example I-133]	100	100	100	100	100	100	100	100	100	100	100	100	100	100	100	100	100	100	100	100	herbicidal activity on Lolium rigidum (Lolium rigidum [13]): 100%; herbicidal activity on Hordeum murinum (Hordeum murinum [18]): 90%; herbicidal activity on Veronica persica (Veronica persica [28]): 100%; herbicidal activity on Lolium rigidum (Lolium rigidum [25]): 90%
Cc1c(Sc2ccc(F)cc2)c(Oc2ncc(Cl)cn2)nn1C [Example I-060]	–	–	100	80	–	–	100	80	–	100	90	100	80	100	80	90	–	90	100	80	herbicidal activity on Veronica persica (Veronica persica [11]): 100%; herbicidal activity on Matricaria inodora (Matricaria inodora [27]): 80%; herbicidal activity on Veronica persica (Veronica persica [28]): 90%

From patent publication US20200181117A1, “SUBSTITUTED 3-HETEROARYLOXY-1H-PYRAZOLES AND SALTS THEREOF AND THEIR USE AS HERBICIDAL ACTIVE SUBSTANCES” (BAYER CROPSCIENCE AKTIENGESELLSCHAFT, priority 2017, published 2020)
